Measured values as given in patent publication US9580521B1, “Process for making a poly(zwitterion/dianion)” (King Fahd University of Petroleum and Minerals, priority 2013, dated 2017).

Test: Inhibition of calcium sulfate (gypsum) scaling, conductivity measurements
Settings: 20 ppm, supersaturated CaSO4 (3 CB); for 4, 9 and 5 screening by visual inspection under the same conditions
Method: The concentration of reject brine (i.e., concentrated brine (CB)) is denoted as 1 CB.
The evaluation of the newly developed scale inhibitor PZA 6 was performed in 3 CB solutions supersaturated with respect to CaSO4 as confirmed from solubility data of CaSO4. To a solution of 6 CB calcium chloride (60 mL) containing PZA 6 (40 ppm i.e. 40 mg/L) at 40° C.±1° C. was added quickly a preheated (40° C.) solution of 6 CB sodium sulfate (60 mL). The resultant 3 CB solution containing 20 ppm of PZA 6 was stirred at 300 rpm using a magnetic stir-bar, and conductivity measurements were made at an interval of every 10 min initially to quantify the effectiveness of the newly developed antiscalant. The drop in conductivity indicates the precipitation of CaSO4. Induction time was measured with a decrease in conductivity when precipitation started. Visual inspection was carefully done to see any turbidity arising from precipitation.
The reject brine in the Reverse Osmosis process has dissolved salts which precipitate in the event of exceeding their solubility limits. […]
A drop in conductivity is indicative of precipitation of CaSO4. […] To our satisfaction, there was no considerable change in conductivity for about 500 min, registering a 98% scale inhibition as calculated using eq 5: […]

In the case of `C=CC[N+](CC=C)(CCCP(=O)(OCC)OCC)CCCS(=O)(=O)[O-]` [Monomer 4, 3-[diallyl {3-(diethoxyphosphoryl)propyl}ammonio]propane-1-sulfonate], the “CaSO4 scale inhibition (in words)” value is reported as “neither monomers 4 and 9 nor polymer 5 gave any effective inhibition”.
